The record followed here is DBAASP.

Structures are written as SMILES. Values after ≈ are worked out from the molar mass of the structure shown.

Some test systems named below: Candida tropicalis; Escherichia coli; Pseudomonas aeruginosa; Staphylococcus aureus; Aeromonas hydrophila; Bacillus cereus; Candida albicans; Cryptococcus neoformans; Vibrio alginolyticus; Vibrio parahaemolyticus; Aspergillus fumigatus; Bibersteinia trehalosi; Klebsiella pneumoniae; Pasteurella multocida; Escherichia coli C25.
What all share (experiment): ≥ marks a high value that may be exact or a test limit, other limits are often not marked, values filed in µg/mL are converted to µM
The test system of experiment [1] is Corynebacterium glutamicum.
The subject of experiment [2] is Staphylococcus epidermidis.
The subject of experiment [3] is Corynebacterium pseudotuberculosis ATCC 19410.
Experiment [4] concerns Mannheimia haemolytica Serovar 1.
Experiment [5] concerns Mannheimia haemolytica Serovar 2.
In experiment [6] the test system is Mannheimia haemolytica Serovar 6.
The subject of experiment [7] is Pseudomonas aeruginosa PAO1.
For experiment [8], the system named is Salmonella enterica subsp. arizonae.
Experiment [9] has as its system Staphylococcus aureus ATCC 25923.
For experiment [10], the system named is Escherichia coli ATCC 25922.
In experiment [11] the test system is Listeria monocytogenes KCTC 19111.
In experiment [12] the test system is Pseudomonas aeruginosa 3241.
In experiment [13] the test system is Pseudomonas aeruginosa 4007.
Experiment [14] concerns Pseudomonas aeruginosa ATCC 15692.
The test system of experiment [15] is Pseudomonas aeruginosa CCARM 2073.
Experiment [16] concerns Pseudomonas aeruginosa CCARM 2075.
The test system of experiment [17] is Salmonella typhimurium KCTC 1926.
The test system of experiment [18] is Staphylococcus aureus 3399.
Experiment [19] deals with Staphylococcus aureus 3518.
The subject of experiment [20] is Staphylococcus aureus CCARM 3125.
In experiment [21] the test system is Staphylococcus aureus CCARM 3709.
The test system of experiment [22] is Staphylococcus epidermidis KCTC 1917.
The test system of experiment [23] is Candida albicans ATCC 10231.
Experiment [24] deals with Cryptococcus neoformans ATCC 32045.
The subject of experiment [25] is Escherichia coli ATCC 2592.
The subject of experiment [26] is Pseudomonas aeruginosa ATCC 10145.
The subject of experiment [27] is Staphylococcus aureus ATCC 33591.

On to `CSCC[C@@H]1NC(=O)[C@H](CC(C)C)NC(=O)[C@H](CCCNC(=N)N)NC(=O)[C@H](CO)NC(=O)[C@@H]2CSSC[C@@H]3NC(=O)[C@H](CO)NC(=O)CNC(=O)[C@H]([C@@H](C)O)NC(=O)[C@H](CSSC[C@H](N)C(=O)N[C@@H](CCCCN)C(=O)NCC(=O)N[C@@H](CCCCN)C(=O)NCC(=O)N[C@@H](C)C(=O)N[C@@H](CCCCN)C(=O)N2)NC(=O)[C@H](CSSC[C@@H](C(N)=O)NC(=O)[C@H](CCCCN)NC(=O)CNC(=O)[C@H](CO)NC(=O)[C@H](CCCNC(=N)N)NC3=O)NC(=O)[C@H](CC(=O)O)NC(=O)[C@H](Cc2ccc(O)cc2)NC1=O` [CKGKGAKCSRLMYDCCTGSCRSGKC], for which the MIC – broadly, the smallest concentration in the dilution series that meets the test's criterion for growth inhibition – against Candida tropicalis is ≥ 39.8 µM; in the experiment on Escherichia coli it was > 500 µM; against Pseudomonas aeruginosa, > 500 µM; with Staphylococcus aureus, > 500 µM.

On to `CC[C@H](C)[C@H](NC(=O)[C@H](C)NC(=O)CNC(=O)[C@@H](NC(=O)[C@@H](NC(=O)[C@H](Cc1cnc[nH]1)NC(=O)[C@H](CCCN=C(N)N)NC(=O)[C@H](Cc1ccccc1)NC(=O)[C@@H](N)Cc1ccccc1)[C@@H](C)CC)C(C)C)C(=O)N[C@@H](CO)C(=O)N[C@@H](CCCN=C(N)N)C(=O)N[C@H](C(=O)N[C@@H](Cc1ccccc1)C(=O)NCC(=O)N[C@@H](CCC(N)=O)C(=O)N[C@@H](CCCCN)C(=O)N[C@@H](CCC(N)=O)C(=O)N[C@@H](CCCN=C(N)N)C(=O)N[C@@H](CC(=O)O)C(=O)N[C@@H](CCSC)C(=O)N[C@@H](C)C(=O)N[C@@H](CC(=O)O)C(=O)O)[C@@H](C)CC` [FFRHIVGAISRIFGQKQRDMAD], for which the MIC against Aeromonas hydrophila was ≥ 50 µM; in the experiment on Bacillus cereus, 17.7 µM (≈ 45.8 µg/mL); in the experiment on Candida albicans it was 17.7 µM (≈ 45.8 µg/mL); in experiment [1], 2.21 µM (≈ 5.73 µg/mL); in the experiment with Cryptococcus neoformans, 2.21 µM (≈ 5.73 µg/mL); with Escherichia coli it was 17.7 µM (≈ 45.8 µg/mL). The minimal inhibitory concentration (MIC) in the experiment with Pseudomonas aeruginosa is 35.4 µM (≈ 91.7 µg/mL); in the experiment on Staphylococcus aureus it was 4.42 µM (≈ 11.5 µg/mL); in experiment [2] it was 17.7 µM (≈ 45.8 µg/mL); in the experiment with Vibrio alginolyticus, ≥ 50 µM; in the experiment on Vibrio parahaemolyticus, ≥ 50 µM.

Turning to `CC[C@H](C)[C@H](N)C(=O)N[C@@H](CCCN=C(N)N)C(=O)N[C@@H](CCCN=C(N)N)C(=O)N[C@H](C(=O)N[C@H](C(=O)N[C@@H](CCCN=C(N)N)C(=O)N[C@@H](CCCCN)C(=O)N[C@H](C(=O)N[C@H](C(=O)N[C@@H](Cc1cnc[nH]1)C(=O)N[C@H](C(=O)N[C@H](C(=O)N[C@@H](CCCCN)C(=O)N[C@@H](CCCCN)C(=O)O)[C@@H](C)CC)[C@@H](C)CC)[C@@H](C)CC)[C@@H](C)CC)[C@@H](C)CC)[C@@H](C)CC` [IRRIIRKIIHIIKK], the MIC is 22.2 µM (≈ 40 µg/mL) against Aspergillus fumigatus; 11.1 µM (≈ 20 µg/mL) against Bibersteinia trehalosi; 11.1 µM (≈ 20 µg/mL) in [3]; > 11.1 µM with Klebsiella pneumoniae; 5.55 µM (≈ 10 µg/mL) in experiment [4]; 2.33 µM (≈ 4.2 µg/mL) in [5]. The minimum inhibitory concentration (MIC) was 3.72 µM (≈ 6.7 µg/mL) in experiment [6]; 8.33 µM (≈ 15 µg/mL) against Pasteurella multocida; 2.78 µM (≈ 5 µg/mL) in experiment [7]; 11.1 µM (≈ 20 µg/mL) in experiment [8]; > 11.1 µM in the experiment on Staphylococcus aureus.

Consider `CC[C@H](C)[C@H](NC(=O)CNC(=O)[C@H](CCCCN)NC(=O)[C@H](Cc1ccc(O)cc1)NC(=O)[C@@H](NC(=O)[C@H](CCCCN)NC(=O)[C@H](Cc1ccccc1)NC(=O)[C@H](Cc1c[nH]c2ccccc12)NC(=O)[C@@H](N)CCCCN)C(C)C)C(=O)N[C@@H](Cc1ccc(O)cc1)C(=O)N[C@@H](CCCCN)C(=O)N[C@@H](CCCCN)C(=O)N[C@@H](CCCCN)C(N)=O` [KWFKVYKGIYKKK], for which the minimal inhibitory concentration (MIC) against Escherichia coli C25 was found to be 8.2 µM (≈ 14.1 µg/mL); in [9], 33 µM (≈ 56.6 µg/mL).

Take `NCCCC[C@H](NC(=O)[C@H](Cc1ccc(O)cc1)NC(=O)[C@H](Cc1c[nH]c2ccccc12)NC(=O)[C@H](CCCCN)NC(=O)[C@H](CCCCN)NC(=O)[C@H](Cc1ccc(O)cc1)NC(=O)[C@H](Cc1c[nH]c2ccccc12)NC(=O)[C@H](CCCCN)NC(=O)[C@H](CCCCN)NC(=O)[C@H](Cc1ccc(O)cc1)NC(=O)[C@H](Cc1c[nH]c2ccccc12)NC(=O)[C@@H](N)CCCCN)C(N)=O` [KWYKKWYKKWYK]: the MIC was determined as 2 µM (≈ 3.67 µg/mL) in [10]; 2 µM (≈ 3.67 µg/mL) in [11]; 2 µM (≈ 3.67 µg/mL) in [12]; 4 µM (≈ 7.34 µg/mL) in experiment [13]; 2 µM (≈ 3.67 µg/mL) in experiment [14]; 2 µM (≈ 3.67 µg/mL) in experiment [15]. Also, the MIC was 2 µM (≈ 3.67 µg/mL) in [16]; 2 µM (≈ 3.67 µg/mL) in experiment [17]; 4 µM (≈ 7.34 µg/mL) in experiment [18]; 2 µM (≈ 3.67 µg/mL) in [19]; 4 µM (≈ 7.34 µg/mL) in [9]; 4 µM (≈ 7.34 µg/mL) in [20]. Further, the minimum inhibitory concentration (MIC) in [21] and in experiment [22] was 2 µM (≈ 3.67 µg/mL) each time.

As for `CC(C)C[C@H](NC(=O)[C@H](CCCCN)NC(=O)[C@H](CCCCN)NC(=O)[C@H](CC(C)C)NC(=O)[C@H](CC(C)C)NC(=O)[C@H](CCCCN)NC(=O)[C@H](CCCCN)NC(=O)[C@H](CC(C)C)NC(=O)[C@H](CC(C)C)NC(=O)[C@H](CCCCN)NC(=O)[C@H](CCCCN)NC(=O)[C@H](CC(C)C)NC(=O)[C@H](CC(C)C)NC(=O)[C@H](CCCCN)NC(=O)[C@H](CCCCN)NC(=O)[C@H](CC(C)C)NC(=O)[C@H](CC(C)C)NC(=O)[C@H](CCCCN)NC(=O)[C@H](CCCCN)NC(=O)[C@H](CC(C)C)NC(=O)[C@H](CC(C)C)NC(=O)[C@H](CCCCN)NC(=O)[C@H](CCCCN)NC(=O)[C@H](CC(C)C)NC(=O)[C@H](CC(C)C)NC(=O)[C@H](CCCCN)NC(=O)[C@H](CCCCN)NC(=O)[C@@H](N)CC(C)C)C(=O)O` [LKKLLKKLLKKLLKKLLKKLLKKLLKKL], the minimum inhibitory concentration (MIC) in [23] was 104 µM (≈ 354 µg/mL); in [24], ≥ 32.9 µM; in [25], 25.9 µM (≈ 88 µg/mL); in [26], ≥ 36.8 µM; in experiment [27], ≥ 73.6 µM.
